# Experimental data: patent US20250268904A1 (priority 2020, published 2025)
# Assays:
# Vero E6 cells [1] = assay type: cell-based, African Green monkey
# SARS-CoV-2 [2] = test system: SARS-CoV-2
# in vitro = details: African green monkey
# SARS-CoV-2 [3] = assay: microbe, parasite or virus in culture; details: Severe acute respiratory syndrome coronavirus 2, Vero C1008, read-out: IC50 inhibition of SARS-CoV-2 infection
# U2OS osteosarcoma cells [4] = assay: Induction of vacuoles (enlarged lysosomes); assay type: cell-based; details: within 4 hours
# Method: (§1) The WX8-family of PIKfyve specific inhibitors disrupts multiple events in lysosome homeostasis (Table 1): • prevent lysosome fission without preventing homotypic lysosome fusion, thereby causing cytoplasmic vacuolization (enlarged lysosomes). Cytoplasmic vacuolization is evident within 30 minutes and reversible for up to 24-48 hours (1Vacuoles). • inhibit trafficking of molecules into lysosomes, thereby reducing lysosomal activity • inhibit maturation of lysosome cathepsins, thereby reducing lysosomal activity • disrupt endosome trafficking, thereby reducing cellular uptake of extracellular materials • inhibit cell proliferation (^3Proliferation) • disrupt autophagy by preventing heterotypic fusion of lysosomes with autophagosomes (^2LC3-II), thereby inducing cell death in autophagy-dependent cancer cells (^4Viability) under conditions where non-malignant cells remain viable.
# U2OS osteosarcoma cells [5] = assay: LC3-II (autophagosome) accumulation; assay type: cell-based; details: Homo sapiens, within 4 to 8 hours, read-out: Accumulate LC3-II EC50
# Method: as §1
# U2OS osteosarcoma cells [6] = assay: Suppression of cell proliferation; assay type: cell-based; details: Homo sapiens, 72 h, within 3 days, read-out: Inhibit Proliferation IC50
# Method: as §1
# U2OS osteosarcoma cells [7] = assay: Reduction of cellular ATP levels (viability); assay type: cell-based; details: Homo sapiens, 96 h, within 4 days, read-out: Inhibit Viability IC50 (cellular ATP levels)
# Method: as §1
# Vero E6 cells [8] = assay: Vero E6 cell proliferation (attached cell count); assay type: cell-based, African Green monkey; details: Chlorocebus sabaeus, Vero C1008, 72 h; cultured for 3 days
# Method: (§2) FIG. 4. […] Vero E6 cells were plated at low density and then cultured overnight before adding WX8 at the concentrations indicated and then cultured for 3 days. (A) Attached cells were collected by trypsinization and counted. The fraction of cells (%) as well as the change in the total number of cells (fold change) relative to cells cultured in the presence of the WX8 vehicle control are given. (B) Attached and unattached cells were combined and stained with annexin-V to identify cells undergoing apoptosis and propidium iodide (PI) to identify dead cells that were permeable to a nuclear DNA stain. The cells were then analyzed by fluorescence activated cell sorting. Quadrant (Q) Q3 contained the unstained (live) cells. Q1 contained cells stained only with annexin-V (early apoptosis). Q2 contained cells stained with both annexin-V and PI (apoptotic dead cells). Q4 contained cells stained only with PI (necrotic dead cells). (C) Data were normalized to the fraction of live cells. Error bars indicate ±SEM. (D) Cells were first permeabilized, stained with PI and then analyzed by fluorescence activated cell sorting in order to quantify the fraction of cells with <2N DNA content. (E) The fraction of cells with <2N DNA content ±SEM.
# (§3) WX8 inhibited Vero E6 cell proliferation with an IC50 of 0.4 μM (FIG. 4A). However, 100-fold higher concentrations of WX8 were required to induce cell death. […]
# Vero E6 cells [9] = assay: Vero E6 cell death, annexin-V / propidium iodide FACS; assay type: cell-based, African Green monkey; details: Chlorocebus sabaeus, Vero C1008, 72 h; 3 days, annexin-V and propidium iodide staining; read-out: IC50 Vero E6 cell death (fraction of live cells)
# Method: as §2, §3
# Vero E6 cells [10] = assay: Vero E6 loss of cellular DNA (PI FACS); assay type: cell-based, African Green monkey; details: Chlorocebus sabaeus, Vero C1008, 72 h, read-out: IP50 for loss of cellular DNA
# Method: as §2, §3
# [11] = test system: 'autophagy-addicted' human melanoma cells; assay type: cell-based
# PIKfyve = PIKfyve (Homo sapiens, UniProt Q9Y2I7); assay: biochemical
# Sequence of PIKfyve (Q9Y2I7 whole entry): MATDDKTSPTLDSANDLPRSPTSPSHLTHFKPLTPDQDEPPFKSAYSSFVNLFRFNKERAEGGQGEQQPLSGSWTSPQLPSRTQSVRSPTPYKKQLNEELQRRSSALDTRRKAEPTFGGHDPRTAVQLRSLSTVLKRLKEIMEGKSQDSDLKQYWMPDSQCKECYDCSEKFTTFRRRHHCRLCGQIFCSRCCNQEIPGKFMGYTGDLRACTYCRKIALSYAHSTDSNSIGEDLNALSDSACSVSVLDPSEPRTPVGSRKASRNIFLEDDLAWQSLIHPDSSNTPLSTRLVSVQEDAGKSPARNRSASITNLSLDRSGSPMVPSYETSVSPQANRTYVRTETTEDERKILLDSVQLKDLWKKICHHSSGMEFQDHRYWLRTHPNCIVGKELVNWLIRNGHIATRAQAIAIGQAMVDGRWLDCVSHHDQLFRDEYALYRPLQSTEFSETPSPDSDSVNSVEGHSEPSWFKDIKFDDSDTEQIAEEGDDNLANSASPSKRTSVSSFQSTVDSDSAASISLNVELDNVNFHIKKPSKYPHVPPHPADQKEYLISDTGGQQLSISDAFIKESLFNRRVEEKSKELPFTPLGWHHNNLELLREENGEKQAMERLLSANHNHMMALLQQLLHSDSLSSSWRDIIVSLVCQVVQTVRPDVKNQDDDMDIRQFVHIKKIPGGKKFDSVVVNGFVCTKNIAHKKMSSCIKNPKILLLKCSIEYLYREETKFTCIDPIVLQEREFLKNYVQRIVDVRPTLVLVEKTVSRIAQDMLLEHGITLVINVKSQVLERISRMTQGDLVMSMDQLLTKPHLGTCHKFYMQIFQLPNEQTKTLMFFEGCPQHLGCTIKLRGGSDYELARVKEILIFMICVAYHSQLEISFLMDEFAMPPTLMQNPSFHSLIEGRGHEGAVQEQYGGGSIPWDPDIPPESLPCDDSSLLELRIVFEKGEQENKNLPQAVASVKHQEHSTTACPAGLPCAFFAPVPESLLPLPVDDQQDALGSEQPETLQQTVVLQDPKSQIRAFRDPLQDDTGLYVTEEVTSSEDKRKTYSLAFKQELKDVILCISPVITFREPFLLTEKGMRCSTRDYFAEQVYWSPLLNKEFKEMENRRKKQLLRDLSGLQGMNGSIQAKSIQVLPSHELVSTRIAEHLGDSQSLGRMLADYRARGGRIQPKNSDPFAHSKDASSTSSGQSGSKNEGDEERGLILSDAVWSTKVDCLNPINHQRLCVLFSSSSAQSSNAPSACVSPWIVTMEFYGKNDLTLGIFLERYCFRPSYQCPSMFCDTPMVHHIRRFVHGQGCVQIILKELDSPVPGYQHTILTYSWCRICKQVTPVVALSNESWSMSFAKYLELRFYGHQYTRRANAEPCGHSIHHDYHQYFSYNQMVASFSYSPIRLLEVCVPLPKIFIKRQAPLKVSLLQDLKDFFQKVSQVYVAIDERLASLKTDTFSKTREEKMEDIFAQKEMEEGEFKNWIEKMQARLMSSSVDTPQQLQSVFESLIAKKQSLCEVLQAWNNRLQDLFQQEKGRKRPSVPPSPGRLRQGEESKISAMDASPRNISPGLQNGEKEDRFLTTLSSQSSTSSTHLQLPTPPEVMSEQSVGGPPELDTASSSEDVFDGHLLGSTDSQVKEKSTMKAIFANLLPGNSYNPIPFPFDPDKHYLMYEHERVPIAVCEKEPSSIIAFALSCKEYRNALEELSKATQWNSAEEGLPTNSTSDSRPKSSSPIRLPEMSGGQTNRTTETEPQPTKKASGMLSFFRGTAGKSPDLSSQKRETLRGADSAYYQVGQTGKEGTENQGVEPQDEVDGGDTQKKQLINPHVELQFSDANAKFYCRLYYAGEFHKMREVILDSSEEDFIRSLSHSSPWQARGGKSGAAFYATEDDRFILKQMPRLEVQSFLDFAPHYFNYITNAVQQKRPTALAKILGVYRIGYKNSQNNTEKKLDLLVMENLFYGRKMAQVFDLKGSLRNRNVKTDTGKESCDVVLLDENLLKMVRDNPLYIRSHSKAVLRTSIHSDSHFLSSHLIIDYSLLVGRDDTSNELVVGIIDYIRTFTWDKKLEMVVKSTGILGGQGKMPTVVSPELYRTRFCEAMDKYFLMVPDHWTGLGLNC
# Method: (§4) Each kinase was tagged with a unique DNA sequence that allowed the amount of protein bound to the solid support to be quantified by PCR. The mean equilibrium dissociation constant (Kd) for each compound was then determined for the top three hits (PIKFYVE, PIP4K2C and MTOR) from two independent titration curves. A dissociation constant (Kd) was calculated by measuring the amount of kinase captured on the solid support as a function of the test compound concentration (nM) on a log10 scale. Mean Kd values (±range) are given for each WX8-family member. The ratios of PIP4K2C/PIKfyve and mTOR/PIKfyve indicate the relative specificity of each compound for PIKfyve.
# PIP4K2C = molecular target: T1, PIP4K2C (Homo sapiens, UniProt Q8TBX8); details: ratio of Kd values
# T1 sequence (Q8TBX8 1-421): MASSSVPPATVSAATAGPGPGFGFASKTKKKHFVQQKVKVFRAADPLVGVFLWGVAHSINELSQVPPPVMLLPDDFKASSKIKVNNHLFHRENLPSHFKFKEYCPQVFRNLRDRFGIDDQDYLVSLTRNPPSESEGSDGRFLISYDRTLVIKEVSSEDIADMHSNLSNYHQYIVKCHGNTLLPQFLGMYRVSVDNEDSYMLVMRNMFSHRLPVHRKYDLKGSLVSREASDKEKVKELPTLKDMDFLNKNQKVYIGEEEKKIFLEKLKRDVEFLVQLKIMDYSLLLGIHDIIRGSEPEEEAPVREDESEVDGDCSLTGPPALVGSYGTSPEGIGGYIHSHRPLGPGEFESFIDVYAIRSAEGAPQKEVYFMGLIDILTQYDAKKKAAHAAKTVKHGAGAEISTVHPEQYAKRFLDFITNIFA
# Method: as §4
Compound,accumulation of cytoplasmic vacuoles (Vero E6 cells [1]),CC50/IC50 (SARS-CoV-2 [2]),CC50 (in vitro) [µM],IC50 (SARS-CoV-2 [3]) [µM],Accumulate Vacuoles EC (U2OS osteosarcoma cells [4]) [µM],EC50 (U2OS osteosarcoma cells [5]) [µM],IC50 (U2OS osteosarcoma cells [6]) [µM],IC50 (U2OS osteosarcoma cells [7]) [µM],IC50 (Vero E6 cells [8]) [µM],IC50 (Vero E6 cells [9]) [µM],IC50 (Vero E6 cells [10]) [µM],lethality relative to chloroquine [11] [times],Kd (PIKfyve) [µM],affinity for PIKfyve relative to PIP4K2C (PIP4K2C/PIKfyve) (PIP4K2C) [fold]
"Cc1cccc(/C=N/Nc2cc(N3CCOCC3)nc(OCCc3ccccn3)n2)c1 [Apilimod, reference compound]",rapidly accumulated cytoplasmic vacuoles,"22,027",33,0.0015,,,,,,,,,,
Cc1cccc(/C=N/Nc2cc(N3CCOCC3)nc(N3CCOCC3)n2)c1 [NDF],rapidly accumulated cytoplasmic vacuoles,52,26.3,0.499,0.1,1.5,1.1,0.42,,,,,,
C(=N\Nc1cc(N2CCOCC2)nc(N2CCOCC2)n1)/c1ccccc1 [WWL],rapidly accumulated cytoplasmic vacuoles,16,40.3,2.44,0.2,6.5,1.6,2.6,,,,,,
C1=Nc2ccccc2/C1=C/NNc1nc(Nc2ccccc2)nc(N2CCOCC2)n1 [WX8],rapidly accumulated cytoplasmic vacuoles,245,42.3,0.172,0.01,0.3,0.2,0.35,0.4,70,60,100,< 0.001,366
CCc1ccc(Nc2nc(N3CCOCC3)nc(N3CCOCC3)n2)cc1 [XB6],,,,,2,> 10,7.4,5.3,,,,,,
Fc1ccc(Nc2nc(N3CCOCC3)nc(N3CCOCC3)n2)cc1Cl [XBA],,,,,4,7.5,4,> 10,,,,,,
